Test results published in PubChem BioAssay (NCI).
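96-well plates; 48 h exposure; 5 concentrations. Endpoints by linear interpolation between flanking doses. Not reached: highest tested concentration assigned. Definition used: TGI = concentration required for complete inhibition of growth.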

What was measured:
Experiment in all cases: DTP human tumour cell line panel, 48 h
A498 renal = system: A498 renal
OVCAR-4 ovarian = system: OVCAR-4 ovarian
KM20L2 colon = system: KM20L2 colon
OVCAR-5 ovarian = system: OVCAR-5 ovarian
UO-31 renal = system: UO-31 renal
U251 CNS = system: U251 CNS
SK-MEL-5 melanoma = system: SK-MEL-5 melanoma
MDA-MB-231 breast = system: MDA-MB-231 breast
BT-549 breast = system: BT-549 breast
MDA-N = system: MDA-N
XF 498 CNS = system: XF 498 CNS

Question: For `CCO/C=C\C12CCCC1NC(c1ccccc1)(c1ccccc1)O2` (stereo not given), which TGI (A498 renal) is on record?
Answer: Its TGI is over 100 µM.

Question: And the TGI (OVCAR-4 ovarian)?
Answer: Its TGI is over 100 µM.

Question: And the TGI (KM20L2 colon)?
Answer: Its TGI is 57.9 µM.

Question: What about the TGI (OVCAR-5 ovarian) of the same molecule?
Answer: The TGI was 37 µM.

Question: What about the TGI (UO-31 renal) of the same molecule?
Answer: Its TGI is 73.6 µM.

Question: And the TGI (U251 CNS)?
Answer: Its TGI is over 100 µM.

Question: And the TGI (SK-MEL-5 melanoma)?
Answer: Its TGI is 31.1 µM.

Question: `COC(=O)CC[C@@H](C)[C@H]1CC[C@H]2[C@@H]3CC[C@@H]4C[C@H](O)CC[C@]4(C)[C@H]3CC[C@]12C` was tested. Which TGI (A498 renal) did it give?
Answer: Its TGI is 35.1 µM.

Question: And the TGI (OVCAR-4 ovarian)?
Answer: The TGI was 36.5 µM.

Question: What about the TGI (MDA-MB-231 breast) of the same molecule?
Answer: The TGI was 34.2 µM.

Question: What about the TGI (OVCAR-5 ovarian) of the same molecule?
Answer: The TGI was 35.6 µM.

Question: And the TGI (UO-31 renal)?
Answer: The TGI was 34.9 µM.

Question: What about the TGI (U251 CNS) of the same molecule?
Answer: Its TGI is 43.2 µM.

Question: And the TGI (BT-549 breast)?
Answer: Its TGI is 33.8 µM.

Question: And the TGI (MDA-N)?
Answer: Its TGI is 35.6 µM.

Question: And the TGI (SK-MEL-5 melanoma)?
Answer: The TGI was 31 µM.

Question: With `C/C(=N\N=C(N)N)C(CN1CCOCC1)C(c1ccccc1)c1c(O)c2ccccc2oc1=O` (stereo not given) as the molecule, how does the TGI (OVCAR-4 ovarian) read?
Answer: The TGI was over 100 µM.

Question: And the TGI (KM20L2 colon)?
Answer: The TGI was over 100 µM.

Question: And the TGI (OVCAR-5 ovarian)?
Answer: The TGI was over 100 µM.

Question: What about the TGI (U251 CNS) of the same molecule?
Answer: The TGI was over 100 µM.

Question: And the TGI (XF 498 CNS)?
Answer: The TGI was over 100 µM.

Question: And the TGI (SK-MEL-5 melanoma)?
Answer: The TGI was over 100 µM.

Question: How did the TGI (OVCAR-4 ovarian) turn out when `COc1ccc(C(C2=C(O)CC(C)OC2=O)C2=C(O)CC(C)OC2=O)cc1` (stereo not given) was run?
Answer: The TGI was over 100 µM.

Question: What about the TGI (KM20L2 colon) of the same molecule?
Answer: The TGI was over 100 µM.

Question: What about the TGI (OVCAR-5 ovarian) of the same molecule?
Answer: Its TGI is over 100 µM.

Question: What about the TGI (UO-31 renal) of the same molecule?
Answer: The TGI was over 100 µM.

Question: And the TGI (U251 CNS)?
Answer: The TGI was over 100 µM.

Question: What about the TGI (SK-MEL-5 melanoma) of the same molecule?
Answer: Its TGI is over 100 µM.

Question: What does the source list for `CC1C(c2ccccc2)N(C)C(c2ccccc2)C(C)C1(O)c1ccccc1` (stereo not given)?
Answer: TGI (A498 renal): > 100 µM; TGI (OVCAR-4 ovarian): > 100 µM; TGI (KM20L2 colon): > 100 µM; TGI (OVCAR-5 ovarian): > 100 µM; TGI (UO-31 renal): > 100 µM; TGI (U251 CNS): > 100 µM; TGI (SK-MEL-5 melanoma): > 100 µM

Question: `C[C@]12CCC(=O)C=C1C[C@@H](O)[C@@H]1[C@@H]2CC[C@@]2(C)[C@H]1CC[C@]2(C)O` was tested. Which TGI (A498 renal) did it give?
Answer: The TGI was over 100 µM.

Question: And the TGI (OVCAR-4 ovarian)?
Answer: The TGI was over 100 µM.

Question: What about the TGI (MDA-MB-231 breast) of the same molecule?
Answer: The TGI was over 100 µM.

Question: And the TGI (OVCAR-5 ovarian)?
Answer: The TGI was over 100 µM.

Question: And the TGI (UO-31 renal)?
Answer: The TGI was over 100 µM.

Question: What about the TGI (U251 CNS) of the same molecule?
Answer: Its TGI is over 100 µM.

Question: What about the TGI (BT-549 breast) of the same molecule?
Answer: Its TGI is over 100 µM.

Question: What about the TGI (MDA-N) of the same molecule?
Answer: The TGI was over 100 µM.

Question: What about the TGI (SK-MEL-5 melanoma) of the same molecule?
Answer: The TGI was over 100 µM.

Question: Which TGI (A498 renal) does the source give for `Cc1ccc(/C=C2\CCCCC2=O)cc1` here?
Answer: Its TGI is over 100 µM.

Question: What about the TGI (OVCAR-4 ovarian) of the same molecule?
Answer: The TGI was over 100 µM.

Question: And the TGI (KM20L2 colon)?
Answer: The TGI was over 100 µM.

Question: And the TGI (UO-31 renal)?
Answer: Its TGI is over 100 µM.

Question: And the TGI (U251 CNS)?
Answer: The TGI was over 100 µM.

Question: What about the TGI (XF 498 CNS) of the same molecule?
Answer: The TGI was over 100 µM.

Question: What about the TGI (SK-MEL-5 melanoma) of the same molecule?
Answer: Its TGI is over 100 µM.

Question: For `Cc1cc(N(CCC#N)S(=O)(=O)c2ccccc2)ccc1C=Nc1ccc(C(=O)O)cc1`, which TGI (A498 renal) is on record?
Answer: The TGI was 44.5 µM.

Question: And the TGI (OVCAR-4 ovarian)?
Answer: The TGI was 18.6 µM.

Question: What about the TGI (KM20L2 colon) of the same molecule?
Answer: Its TGI is 28.6 µM.

Question: And the TGI (MDA-MB-231 breast)?
Answer: The TGI was over 100 µM.

Question: What about the TGI (OVCAR-5 ovarian) of the same molecule?
Answer: The TGI was 38.7 µM.

Question: What about the TGI (UO-31 renal) of the same molecule?
Answer: The TGI was 21.8 µM.

Question: And the TGI (U251 CNS)?
Answer: Its TGI is 38.2 µM.

Question: What about the TGI (BT-549 breast) of the same molecule?
Answer: The TGI was over 100 µM.

Question: What about the TGI (MDA-N) of the same molecule?
Answer: The TGI was over 100 µM.

Question: What about the TGI (XF 498 CNS) of the same molecule?
Answer: The TGI was 22.5 µM.

Question: And the TGI (SK-MEL-5 melanoma)?
Answer: The TGI was 24.3 µM.

Question: How did the TGI (A498 renal) turn out when `COc1cc(/C=C2\[C@@H]3NC(Cc4c(OC)c(C)c(OC)c(OC)c43)C(=O)N2Cc2ccccc2)c(OC)c(C)c1OC` was run?
Answer: The TGI was over 100 µM.

Question: What about the TGI (OVCAR-4 ovarian) of the same molecule?
Answer: The TGI was 89.8 µM.

Question: And the TGI (KM20L2 colon)?
Answer: Its TGI is 96.3 µM.

Question: And the TGI (OVCAR-5 ovarian)?
Answer: Its TGI is over 100 µM.

Question: What about the TGI (UO-31 renal) of the same molecule?
Answer: Its TGI is 80.5 µM.

Question: What about the TGI (U251 CNS) of the same molecule?
Answer: The TGI was over 100 µM.

Question: And the TGI (SK-MEL-5 melanoma)?
Answer: The TGI was over 100 µM.

Question: How did the TGI (OVCAR-4 ovarian) turn out when `CCCCCCCCCC1CC(=O)OC2=C1C(=O)CCC2` (stereo not given) was run?
Answer: The TGI was over 100 µM.

Question: And the TGI (KM20L2 colon)?
Answer: Its TGI is over 100 µM.

Question: And the TGI (OVCAR-5 ovarian)?
Answer: The TGI was over 100 µM.

Question: And the TGI (UO-31 renal)?
Answer: The TGI was over 100 µM.

Question: What about the TGI (U251 CNS) of the same molecule?
Answer: Its TGI is over 100 µM.

Question: What about the TGI (XF 498 CNS) of the same molecule?
Answer: Its TGI is over 100 µM.

Question: What about the TGI (SK-MEL-5 melanoma) of the same molecule?
Answer: The TGI was over 100 µM.

Question: How did the TGI (A498 renal) turn out when `OC(c1cc(C(F)(F)F)nc2c(Cl)cc(Cl)cc12)C1CCCCN1` (stereo not given) was run?
Answer: The TGI was over 51.4 µM.

Question: And the TGI (OVCAR-4 ovarian)?
Answer: The TGI was 18.3 µM.

Question: And the TGI (MDA-MB-231 breast)?
Answer: Its TGI is over 44.8 µM.

Question: And the TGI (OVCAR-5 ovarian)?
Answer: The TGI was over 50.4 µM.

Question: And the TGI (UO-31 renal)?
Answer: Its TGI is 3.22 µM.

Question: And the TGI (U251 CNS)?
Answer: The TGI was over 48.3 µM.

Question: What about the TGI (BT-549 breast) of the same molecule?
Answer: Its TGI is 28.2 µM.

Question: And the TGI (MDA-N)?
Answer: The TGI was over 100 µM.

Question: What about the TGI (SK-MEL-5 melanoma) of the same molecule?
Answer: The TGI was 22.6 µM.

Question: How did the TGI (A498 renal) turn out when `CC1(C)OCC2OC(n3cnc4c(N)nc(Cl)nc43)C(OS(C)(=O)=O)C2O1` (stereo not given) was run?
Answer: The TGI was over 100 µM.

Question: What about the TGI (OVCAR-4 ovarian) of the same molecule?
Answer: Its TGI is over 100 µM.

Question: And the TGI (MDA-MB-231 breast)?
Answer: Its TGI is over 100 µM.

Question: What about the TGI (OVCAR-5 ovarian) of the same molecule?
Answer: Its TGI is over 100 µM.

Question: What about the TGI (UO-31 renal) of the same molecule?
Answer: Its TGI is over 100 µM.

Question: What about the TGI (U251 CNS) of the same molecule?
Answer: The TGI was over 100 µM.

Question: And the TGI (BT-549 breast)?
Answer: Its TGI is over 100 µM.

Question: What about the TGI (MDA-N) of the same molecule?
Answer: Its TGI is over 100 µM.

Question: What about the TGI (SK-MEL-5 melanoma) of the same molecule?
Answer: Its TGI is over 100 µM.

Question: With `O=[N+]([O-])c1ccc2c(c1)C(N1CCN(CCO)CC1)Cc1ccc(F)cc1S2` (stereo not given) as the molecule, how does the TGI (A498 renal) read?
Answer: The TGI was 25.8 µM.

Question: What about the TGI (OVCAR-4 ovarian) of the same molecule?
Answer: Its TGI is 33.5 µM.

Question: What about the TGI (MDA-MB-231 breast) of the same molecule?
Answer: Its TGI is 28.2 µM.

Question: And the TGI (OVCAR-5 ovarian)?
Answer: The TGI was 26.9 µM.

Question: And the TGI (UO-31 renal)?
Answer: The TGI was 18.1 µM.

Question: What about the TGI (U251 CNS) of the same molecule?
Answer: The TGI was 24.3 µM.

Question: And the TGI (BT-549 breast)?
Answer: Its TGI is 23.1 µM.

Question: What about the TGI (MDA-N) of the same molecule?
Answer: Its TGI is 24.1 µM.

Question: And the TGI (SK-MEL-5 melanoma)?
Answer: Its TGI is 3.48 µM.

Question: Which results are given for `CC1(c2ccc(F)cc2)C2C(=O)NC(=O)C1C(=O)NC2=O` (stereo not given)?
Answer: TGI (A498 renal): > 100 µM; TGI (OVCAR-4 ovarian): > 100 µM; TGI (KM20L2 colon): > 100 µM; TGI (OVCAR-5 ovarian): > 100 µM; TGI (UO-31 renal): > 100 µM; TGI (XF 498 CNS): > 100 µM; TGI (SK-MEL-5 melanoma): > 100 µM
